Assay results: ChEMBL document CHEMBL5608181, “Discovery of indazole inhibitors for heat shock protein 90 as anti-cancer agents” (Eur J Med Chem, 2024)
Activity calls are given as the source filed them. The rule behind the calls is not given here.

Key:
Homo sapiens = species on record: Homo sapiens; experiment: Inhibition of N-terminal HSP90 (unknown origin) at 10 uM by AlphaLISA assay
[1] = Toxicity in female BALB/c nude mouse assessed as effect on body weight at 20 mg/kg, ip administered every other day for 40 days; assay type: organism-based; conditions: in vivo, 960 h, time 40 day
[2] = Metabolic stability in rat liver microsomes assessed as parent compound remaining measured after 30 mins; assay type: ADME, Microsome; conditions: read-out: Stability
[3] = system: Trastuzumab-resistant JIMT-1; experiment: Antiproliferative activity against human Trastuzumab-resistant JIMT-1 cell assessed as inhibition of cell viability measured after 72 hrs by CellTiter 96 Aqueous One Solution Cell Proliferation Assay; assay type: functional, cell-based; conditions: Trastuzumab-resistant JIMT-1, 72 h
[4] = AUC/dose in Sprague-Dawley rat at 10 mg/kg, po; assay type: ADME, organism-based; conditions: in vivo
BT-474 [5] = experiment: Downregulation of HER2 expression in human Trastuzumab-sensitive BT474 cell at 10 uM measured upto 72 hrs by Western blot analysis; assay type: functional, cell-based
[6] = system: Trastuzumab-resistant JIMT-1; experiment: Antitumor activity against human Trastuzumab-resistant JIMT-1 cell xenografted in female BALB/c nude mouse assessed as inhibition of tumor weight at 20 mg/kg, ip administered every other day for 40 days; assay type: functional, organism-based; conditions: time 40.0 day
BT-474 [7] = experiment: Downregulation of cyclinD1 level in human Trastuzumab-sensitive BT474 cell at 10 uM measured upto 72 hrs by Western blot analysis; assay type: functional, cell-based
[8] = system: Trastuzumab-resistant JIMT-1; experiment: Downregulation of AKT expression in human Trastuzumab-resistant JIMT-1 cell at 10 uM measured upto 72 hrs by Western blot analysis; assay type: functional, cell-based
[9] = system: Trastuzumab-resistant JIMT-1; experiment: Downregulation of HER2 expression in human Trastuzumab-resistant JIMT-1 cell at 10 uM measured upto 72 hrs by Western blot analysis; assay type: functional, cell-based
[10] = AUCinfinity in Sprague-Dawley rat at 10 mg/kg, po; assay type: ADME, organism-based; conditions: in vivo
[11] = Stability in rat plasma assessed as compound remaining incubated for 120 mins; assay type: ADME, cell-free; conditions: read-out: Stability
hERG (KCNH2) [12] = target: T1, hERG (KCNH2) (Homo sapiens, UniProt Q12809); experiment: Inhibition of human ERG at 10 uM by fluorescence polarization assay relative to control
T1 sequence (Q12809 whole entry): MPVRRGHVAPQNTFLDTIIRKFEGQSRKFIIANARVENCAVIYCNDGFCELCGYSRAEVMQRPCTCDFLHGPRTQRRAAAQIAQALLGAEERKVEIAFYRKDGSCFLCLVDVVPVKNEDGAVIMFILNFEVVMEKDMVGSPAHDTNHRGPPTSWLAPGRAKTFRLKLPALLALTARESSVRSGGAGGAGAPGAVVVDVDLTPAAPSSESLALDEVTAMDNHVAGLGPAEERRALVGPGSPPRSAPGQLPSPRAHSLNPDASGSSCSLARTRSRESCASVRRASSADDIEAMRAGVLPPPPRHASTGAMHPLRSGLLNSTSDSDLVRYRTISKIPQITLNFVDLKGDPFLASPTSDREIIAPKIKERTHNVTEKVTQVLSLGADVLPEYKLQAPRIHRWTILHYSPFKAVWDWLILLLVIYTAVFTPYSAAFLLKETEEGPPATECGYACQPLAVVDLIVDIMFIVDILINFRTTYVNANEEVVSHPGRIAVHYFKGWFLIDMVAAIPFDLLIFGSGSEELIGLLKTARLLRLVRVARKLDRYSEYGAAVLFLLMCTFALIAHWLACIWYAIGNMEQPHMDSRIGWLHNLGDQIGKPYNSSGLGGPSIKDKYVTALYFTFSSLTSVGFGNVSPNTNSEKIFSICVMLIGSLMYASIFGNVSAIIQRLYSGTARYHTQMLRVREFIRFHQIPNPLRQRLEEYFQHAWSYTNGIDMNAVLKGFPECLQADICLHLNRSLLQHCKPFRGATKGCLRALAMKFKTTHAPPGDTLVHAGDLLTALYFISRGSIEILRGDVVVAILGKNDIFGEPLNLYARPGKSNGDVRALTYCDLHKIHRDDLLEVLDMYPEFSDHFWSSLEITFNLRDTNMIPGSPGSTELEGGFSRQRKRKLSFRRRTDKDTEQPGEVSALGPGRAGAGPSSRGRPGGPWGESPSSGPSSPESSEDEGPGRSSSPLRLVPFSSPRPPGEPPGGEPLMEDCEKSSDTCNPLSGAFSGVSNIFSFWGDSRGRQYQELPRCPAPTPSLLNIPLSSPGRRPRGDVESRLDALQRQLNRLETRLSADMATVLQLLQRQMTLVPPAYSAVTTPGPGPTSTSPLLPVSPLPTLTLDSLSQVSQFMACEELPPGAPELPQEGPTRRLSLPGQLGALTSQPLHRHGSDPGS

[13] = target: Heat shock protein HSP 90-alpha (Homo sapiens) (UniProt P07900); experiment: Inhibition of HSP90alpha in human Trastuzumab-resistant JIMT-1 cell assessed as reduction in Akt phosphorylation level at Ser473 residues at 10 uM measured upto 72 hrs by Western blot analysis; assay type: cell-based
[14] = MRTinfinity in Sprague-Dawley rat at 5 mg/kg, iv; assay type: ADME, organism-based; conditions: in vivo
hERG (KCNH2) [15] = target: T1, hERG (KCNH2); experiment: Inhibition of human ERG expressed in CHO cells at 30 uM by whole-cell patch clamp assay relative to control; assay type: toxicity, cell-based; conditions: CHO cells expressing hERG
[16] = AUClast in Sprague-Dawley rat at 5 mg/kg, iv; assay type: ADME, organism-based; conditions: in vivo
[17] = AUC/dose in Sprague-Dawley rat at 5 mg/kg, iv; assay type: ADME, organism-based; conditions: in vivo
[18] = Tmax in Sprague-Dawley rat at 10 mg/kg, po; assay type: ADME, organism-based; conditions: in vivo
CYP3A4 = CYP3A4 (Homo sapiens, UniProt P08684); experiment: Inhibition of CYP3A4 (unknown origin) at 10 uM relative to control; assay type: ADME
Chain of CYP3A4 (P08684 whole entry): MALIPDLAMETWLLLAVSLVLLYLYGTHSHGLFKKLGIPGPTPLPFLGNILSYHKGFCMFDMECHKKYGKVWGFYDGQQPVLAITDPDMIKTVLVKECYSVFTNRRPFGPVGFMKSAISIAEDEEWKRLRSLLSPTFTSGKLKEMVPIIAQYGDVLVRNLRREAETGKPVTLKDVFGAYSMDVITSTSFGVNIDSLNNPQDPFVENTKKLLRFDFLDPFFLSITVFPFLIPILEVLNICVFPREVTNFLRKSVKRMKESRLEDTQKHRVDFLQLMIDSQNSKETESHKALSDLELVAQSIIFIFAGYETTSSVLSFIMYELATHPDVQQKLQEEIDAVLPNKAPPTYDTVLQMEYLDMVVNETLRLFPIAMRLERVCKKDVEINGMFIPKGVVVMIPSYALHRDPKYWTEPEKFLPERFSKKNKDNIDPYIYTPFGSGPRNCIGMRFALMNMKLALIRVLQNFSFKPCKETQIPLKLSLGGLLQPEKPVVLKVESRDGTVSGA

BT-474 [19] = experiment: Downregulation of AKT expression in human Trastuzumab-sensitive BT474 cell at 10 uM measured upto 72 hrs by Western blot analysis; assay type: functional, cell-based
[20] = target: Heat shock protein HSP 90-alpha (Homo sapiens) (UniProt P07900); experiment: Inhibition of HSP90alpha in human Trastuzumab-resistant JIMT-1 cell assessed as reduction in HER2 phosphorylation level at Tyr1221/1222 residues at 10 uM measured upto 72 hrs by Western blot analysis; assay type: cell-based
[21] = system: Trastuzumab-resistant JIMT-1; experiment: Antitumor activity against human Trastuzumab-resistant JIMT-1 cell xenografted in female BALB/c nude mouse assessed as inhibition of tumor burden at 20 mg/kg, ip administered every other day for 40 days; assay type: functional, organism-based; conditions: time 40.0 day
[22] = Genotoxicity in Salmonella typhimurium TA100 in presence of rat liver S9 fraction by Ames test; assay type: toxicity, subcellular; conditions: salmonella enterica subsp. enterica serovar typhimurium
[23] = Stability in human plasma assessed as compound remaining incubated for 120 mins; assay type: ADME, cell-free; conditions: read-out: Stability
[24] = Metabolic stability in human liver microsomes assessed as parent compound remaining measured after 30 mins; assay type: ADME, Microsome; conditions: read-out: Stability
[25] = Genotoxicity in Salmonella typhimurium TA98 in presence of rat liver S9 fraction by Ames test; assay type: toxicity, subcellular; conditions: salmonella enterica subsp. enterica serovar typhimurium
[26] = target: Heat shock protein HSP 90-alpha (Homo sapiens) (UniProt P07900); experiment: Inhibition of HSP90alpha in human Trastuzumab-sensitive BT474 cell assessed as reduction in Akt phosphorylation level at Ser473 residues at 10 uM measured upto 72 hrs by Western blot analysis; assay type: cell-based
[27] = MRTinfinity in Sprague-Dawley rat at 10 mg/kg, po; assay type: ADME, organism-based; conditions: in vivo
[28] = system: Trastuzumab-resistant JIMT-1; experiment: Downregulation of cyclinD1 level in human Trastuzumab-resistant JIMT-1 cell at 10 uM measured upto 72 hrs by Western blot analysis; assay type: functional, cell-based
[29] = Genotoxicity in Salmonella typhimurium TA100 in absence of rat liver S9 fraction by Ames test; assay type: toxicity; conditions: salmonella enterica subsp. enterica serovar typhimurium
[30] = Volume of distribution in Sprague-Dawley rat at 10 mg/kg, po; assay type: ADME, organism-based; conditions: in vivo
CYP2C19 = CYP2C19 (Homo sapiens, UniProt P33261); experiment: Inhibition of CYP2C19 (unknown origin) at 10 uM relative to control; assay type: ADME
Chain of CYP2C19 (P33261 whole entry): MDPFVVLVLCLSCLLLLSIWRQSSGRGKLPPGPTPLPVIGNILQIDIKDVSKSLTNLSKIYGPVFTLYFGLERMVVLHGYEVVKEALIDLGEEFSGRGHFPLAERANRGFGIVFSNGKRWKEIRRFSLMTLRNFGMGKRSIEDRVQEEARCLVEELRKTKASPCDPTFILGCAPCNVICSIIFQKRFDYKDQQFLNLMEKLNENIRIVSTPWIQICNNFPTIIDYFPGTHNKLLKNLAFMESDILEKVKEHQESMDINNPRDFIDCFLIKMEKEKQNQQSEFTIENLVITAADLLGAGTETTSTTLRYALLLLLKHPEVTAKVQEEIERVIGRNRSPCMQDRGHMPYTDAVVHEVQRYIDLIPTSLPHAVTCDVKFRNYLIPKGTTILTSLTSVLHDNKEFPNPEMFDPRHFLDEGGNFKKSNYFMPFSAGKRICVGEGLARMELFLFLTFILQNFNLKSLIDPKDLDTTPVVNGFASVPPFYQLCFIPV

CYP2C9 = CYP2C9 (Homo sapiens, UniProt P11712); experiment: Inhibition of CYP2C9 (unknown origin) at 10 uM relative to control; assay type: ADME
Chain of CYP2C9 (P11712 whole entry): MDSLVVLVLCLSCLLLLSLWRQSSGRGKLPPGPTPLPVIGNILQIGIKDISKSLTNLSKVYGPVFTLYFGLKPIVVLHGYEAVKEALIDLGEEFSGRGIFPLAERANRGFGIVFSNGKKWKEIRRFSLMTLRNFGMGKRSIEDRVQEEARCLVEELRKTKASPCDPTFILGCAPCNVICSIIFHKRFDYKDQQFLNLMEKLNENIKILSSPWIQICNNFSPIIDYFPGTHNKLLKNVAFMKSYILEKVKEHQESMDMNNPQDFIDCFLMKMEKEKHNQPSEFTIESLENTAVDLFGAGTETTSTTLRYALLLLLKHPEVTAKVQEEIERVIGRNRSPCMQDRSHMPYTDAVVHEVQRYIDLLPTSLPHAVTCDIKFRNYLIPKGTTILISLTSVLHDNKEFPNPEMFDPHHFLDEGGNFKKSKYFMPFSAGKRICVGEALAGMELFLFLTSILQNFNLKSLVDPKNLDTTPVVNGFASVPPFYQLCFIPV

[31] = system: Trastuzumab-resistant JIMT-1; experiment: Antitumor activity against human Trastuzumab-resistant JIMT-1 cell xenografted in female BALB/c nude mouse assessed as inhibition of tumor volume at 20 mg/kg, ip administered every other day for 40 days; assay type: functional, organism-based; conditions: time 40.0 day
[32] = Antiproliferative activity against human Trastuzumab-sensitive BT474 cell assessed as inhibition of cell viability measured after 72 hrs by CellTiter 96 Aqueous One Solution Cell Proliferation Assay; assay type: functional, cell-based; conditions: BT-474, 72 h
[33] = target: Heat shock protein HSP 90-alpha (Homo sapiens) (UniProt P07900); experiment: Inhibition of PPID binding to C-terminal Hsp90-alpha CTD (unknown origin) at 500 uM by Alpha screen microplate reader analysis
[34] = Clearance in Sprague-Dawley rat at 5 mg/kg, iv; assay type: ADME, organism-based; conditions: in vivo
[35] = Half life in Sprague-Dawley rat at 10 mg/kg, po; assay type: ADME, organism-based; conditions: in vivo
CYP2D6 = CYP2D6 (Homo sapiens, UniProt P10635); experiment: Inhibition of CYP2D6 (unknown origin) at 10 uM relative to control; assay type: ADME
Chain of CYP2D6 (P10635 whole entry): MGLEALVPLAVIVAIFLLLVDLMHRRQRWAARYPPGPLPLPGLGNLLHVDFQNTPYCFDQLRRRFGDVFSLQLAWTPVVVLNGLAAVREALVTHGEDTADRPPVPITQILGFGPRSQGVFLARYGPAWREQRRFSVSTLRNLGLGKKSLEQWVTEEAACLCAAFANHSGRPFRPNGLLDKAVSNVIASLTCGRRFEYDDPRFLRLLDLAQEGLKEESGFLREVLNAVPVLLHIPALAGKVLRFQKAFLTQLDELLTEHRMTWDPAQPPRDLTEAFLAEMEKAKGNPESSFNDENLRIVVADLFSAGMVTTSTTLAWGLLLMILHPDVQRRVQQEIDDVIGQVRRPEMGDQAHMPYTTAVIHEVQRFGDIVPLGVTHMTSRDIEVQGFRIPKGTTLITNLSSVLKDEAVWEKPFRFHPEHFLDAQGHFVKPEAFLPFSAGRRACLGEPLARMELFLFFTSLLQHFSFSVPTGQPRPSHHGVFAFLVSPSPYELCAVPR

BT-474 [36] = experiment: Downregulation of survivin protein level in human Trastuzumab-sensitive BT474 cell at 10 uM measured upto 72 hrs by Western blot analysis; assay type: functional, cell-based
JIMT-1 = experiment: Antiproliferative activity against human JIMT-1 cells assessed as inhibition of cell viability at 10 uM measured after 72 hrs by CellTiter 96 Aqueous One Solution Cell Proliferation Assay relative to control; assay type: functional
CYP1A2 = target: T2, CYP1A2 (Homo sapiens, UniProt P05177); experiment: Inhibition of CYP1A2 (unknown origin) at 10 uM relative to control; assay type: ADME
T2 sequence (P05177 whole entry): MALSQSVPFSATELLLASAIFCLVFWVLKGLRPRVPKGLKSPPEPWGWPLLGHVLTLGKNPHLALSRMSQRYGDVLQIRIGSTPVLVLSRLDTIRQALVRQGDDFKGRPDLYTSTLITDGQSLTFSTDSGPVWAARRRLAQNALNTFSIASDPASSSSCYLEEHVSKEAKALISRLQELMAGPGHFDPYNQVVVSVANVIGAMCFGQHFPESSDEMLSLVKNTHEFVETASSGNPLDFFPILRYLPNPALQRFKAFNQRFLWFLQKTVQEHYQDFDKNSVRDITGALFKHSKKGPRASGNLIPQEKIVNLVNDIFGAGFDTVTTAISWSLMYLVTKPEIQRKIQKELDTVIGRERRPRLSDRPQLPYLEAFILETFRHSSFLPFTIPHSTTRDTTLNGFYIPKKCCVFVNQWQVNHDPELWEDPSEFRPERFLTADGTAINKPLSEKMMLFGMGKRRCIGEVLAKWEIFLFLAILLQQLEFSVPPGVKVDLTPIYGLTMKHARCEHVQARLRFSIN

[37] = C0 in Sprague-Dawley rat at 5 mg/kg, iv; assay type: ADME, organism-based; conditions: in vivo
[38] = Half life in Sprague-Dawley rat at 5 mg/kg, iv; assay type: ADME, organism-based; conditions: in vivo
[39] = AUCinfinity in Sprague-Dawley rat at 5 mg/kg, iv; assay type: ADME, organism-based; conditions: in vivo
BT-474 [40] = experiment: Antiproliferative activity against human BT-474 cells assessed as inhibition of cell viability at 10 uM measured after 72 hrs by CellTiter 96 Aqueous One Solution Cell Proliferation Assay relative to control; assay type: functional
hERG (KCNH2) [41] = target: T1, hERG (KCNH2); experiment: Inhibition of human ERG expressed in CHO cells at 3 uM by whole-cell patch clamp assay relative to control; assay type: toxicity, cell-based; conditions: CHO cells expressing hERG
[42] = system: Trastuzumab-resistant JIMT-1; experiment: Downregulation of survivin protein level in human Trastuzumab-resistant JIMT-1 cell at 10 uM measured upto 72 hrs by Western blot analysis; assay type: functional, cell-based
[43] = Cmax in Sprague-Dawley rat at 10 mg/kg, po; assay type: ADME, organism-based; conditions: in vivo
HEK293 = experiment: Cytotoxicity against HEK293 cells assessed as reduction in cell viability at 10 uM measured after 72 hrs by CellTiter 96 Aqueous One Solution Cell Proliferation Assay; assay type: toxicity, cell-based; conditions: human, hek293, 72 h
[44] = Volume of distribution in Sprague-Dawley rat at 5 mg/kg, iv; assay type: ADME, organism-based; conditions: in vivo
[45] = Genotoxicity in Salmonella typhimurium TA98 in absence of rat liver S9 fraction by Ames test; assay type: toxicity; conditions: salmonella enterica subsp. enterica serovar typhimurium
[46] = AUClast in Sprague-Dawley rat at 10 mg/kg, po; assay type: ADME, organism-based; conditions: in vivo
[47] = target: Heat shock protein HSP 90-alpha (Homo sapiens) (UniProt P07900); experiment: Inhibition of HSP90alpha in human Trastuzumab-sensitive BT474 cells assessed as reduction in HER2 phosphorylation level at Tyr1221/1222 residues at 10 uM measured upto 72 hrs by Western blot analysis; assay type: cell-based
[48] = Oral bioavailability in Sprague-Dawley rat at 10 mg/kg; assay type: ADME, organism-based; conditions: in vivo
[49] = Clearance in Sprague-Dawley rat at 10 mg/kg, po; assay type: ADME, organism-based; conditions: in vivo

Compound: COc1c(C(=O)Nc2ccc3c(C)nn(CCC4CCN(C)CC4)c3c2)ccc2c1C=CC(C)(C)O2
- inhibition (Homo sapiens): inactive
- Activity [1]: Non-Toxic
- remaining at 0.5 h [2]: 62.8%
- IC50 [3]: 4.42 µM
- AUC/dose [4]: 103.2 ng·h/mL
- Activity (BT-474 [5]): Active
- Activity [6]: Active
- Activity (BT-474 [7]): Active
- Activity [8]: Active
- Activity [9]: Active
- AUC [10]: 2957 ng·h/mL
- remaining at 2 h [11]: 98.3%
- inhibition at 10 µM (hERG (KCNH2) [12]): 57%
- inhibition [13]: Active
- MRT inf [14]: 5.4 h
- inhibition at 30 µM (hERG (KCNH2) [15]): 87.1%
- AUC(0-t) [16]: 771 ng·h/mL
- AUC/dose [17]: 154.3 ng·h/mL
- Tmax [18]: 4 h
- inhibition at 10 µM (CYP3A4): 73%
- Activity (BT-474 [19]): Active
- inhibition [20]: Active
- Activity [21]: Active
- Activity [22]: Non-Toxic
- remaining at 2 h [23]: 100%
- remaining at 0.5 h [24]: 94.5%
- Activity [25]: Non-Toxic
- inhibition [26]: Active
- MRT inf [27]: 15 h
- Activity [28]: Active
- Activity [29]: Non-Toxic
- Vd [30]: 3.6 L/kg
- inhibition at 10 µM (CYP2C19): 56.3%
- inhibition at 10 µM (CYP2C9): 78.2%
- Activity [31]: Active
- IC50 [32]: 6.86 µM
- inhibition [33]: Active
- clearance [34]: 84.5 mL/min
- half-life [35]: 9.6 h
- inhibition at 10 µM (CYP2D6): 55.3%
- Activity (BT-474 [36]): Active
- inhibition at 10 µM (JIMT-1): < 20%
- inhibition at 10 µM (CYP1A2): > 100%
- C0 [37]: 342 ng/mL
- half-life [38]: 4.4 h
- AUC [39]: 1059 ng·h/mL
- inhibition at 10 µM (BT-474 [40]): < 20%
- inhibition at 3 µM (hERG (KCNH2) [41]): 30.4%
- Activity [42]: Active
- Cmax [43]: 159 ng/mL
- Activity (HEK293): Toxic
- Vd [44]: 31.2 L/kg
- Activity [45]: Non-Toxic
- AUC(0-t) [46]: 1030 ng·h/mL
- inhibition [47]: Active
- F [48]: 66.9%
- CL/F [49]: 47.3 mL/min

Compound: COCCn1nc(NC(=O)c2ccc3c(c2OC)C=CC(C)(C)O3)c2ccccc21
- inhibition at 10 µM (JIMT-1): > 50%
- inhibition at 10 µM (BT-474 [40]): > 50%
- Activity (HEK293): Toxic
